Values of other authors in patent publication US20210267912A1, “METHYL SULFONYL METHANE-CONTAINING COMPOSITION FOR PREVENTING OR ALLEVIATING OBESITY, FATTY LIVER, AND DIABETES” (priority 2018, published 2021).

Details: animal toxicity test

SMILES: CS(C)(=O)=O [Methylsulfonylmethane]
- Half lethal dose: more than 20 g per 1 kg of body weight
